Data taken from patent US4540700A, “Treatment of diabetic complications with certain spiro-imidazolidine-diones” (Alcon Laboratories, Inc., priority 1984, dated 1985).
Values joined by “and” are separate entries in the source; they are usually repeats but may differ in a detail not shown here. Identical values can stand only once.

Test system: cataract formation in galactocemic rats
Assay: in vivo dose response by intubation (per oral) in galactocemic rats, cataract (vacuole) formation
Set-up: species or system Charles River CD (Sprague-Dawley derived) male rats
Experimental: B. In vivo dose response studies were conducted to test the in vivo activity of the following compounds by intubation (per oral) in galactocemic rats on a 30% galactose diet previously described:
Stock suspensions of the test compounds and all dilutions of the compound were formulated with 0.03% by weight Tween 80.
Healthy, Charles River CD (outbred albino, Sprague-Dawley derived) male rats, aged 20-30 days, without observable ocular defects and ranging in weight from 35-45 grams, were acclimated to experimental conditions (in quarantine) for two days prior to beginning the study.
Rats were individually assigned to one of twenty-three groups according to a random number schedule. Two rats, belonging to the same drug-diet treatment group, were housed per cage. Treatment and control groups consisted of six (6) rats each with no replacement in the event of death, and were designated as follows:
Lenses of all eyes were examined with a hand-held ophthalmoscope in the early stages of cataract development and a penlight for the stages, snowflake-like, snowflake, and nuclear cataract. Lens grading occurred every day for the first ten study days, and then every other day until study Day 14.
The relative potency determination was made at 7 drug levels over half log dose intervals. The response (percent cataracts formed and/or the time to cataract formation) was plotted against mg/kg and/or moles/kg.
The study was directed to the suppression and/or elimination of the initial stages of cataract development characterized by vacuoles or snowflake-likeopacities only. It was assumed therefore that suppression and/or elimination of vacuoles or lens opacification by the test drugs affects the transport, absorption and/or metabolism of galactose in such a manner as to prevent subsequent osmotic disturbances normally leading to tissue degeneration and advanced cataract. Advanced cataract defined as stages 2-4 of the Sipple classification was assumed to be of secondary importance to the etiology of cataract inhibition.
In the event where cataract stage other than vacuole formed, such as snowflake-like opacities, this cataract was counted similarly as vacuole in percent cataract formation.
This study yielded this expected effect in the control groups.
All animals were fed Purina Laboratory Chow and water, ad libitum, for the two day acclimation period. All drugs were dosed orally by intubation using an animal feeding needle (Popper and Sons), 18 or 20 gauge, attached to a 1 or 3 ml syringe. Once the dosing time schedule was established, the schedule was followed throughout the study to compensate for any diurnal variation.
The animals were kept on a twelve hour day/night cycle. The temperature and humidity were determined each day at the scheduled dosing time of 1:00 p.m.
The animals were weighed every other day and adjustments to dosage amounts to compensate for weight gain were made each day prior to the dose time. All food was routinely withheld from all animal groups for four hours (9:00 a.m.) prior to the drug dose and restored two hours (3:00 p.m.) post-dose. Otherwise sufficient amounts of chow or diet mixture were maintained in the food hopper to allow the animals to eat ad libitum. There were two days of drug dosage with the animals remaining on Purina Laboratory Chow (Days 1 and 2). The 30% galactose diet mixture was introduced to the animals two hours post-dose on Day 3 which constituted Day 1 of the study.
All eyes were examined with a hand-held ophthalmoscope and/or penlight at the times designated in the Experimental Design section.
It has been found in previous studies that dilation of the eye with a mydriactic (i.e. Mydriacyl) is not necessary for accurate grading, due to the semi-transparent nature of the rat iris. In the early stages (i.e., grades -, ±, and +) the lens was observed by reflecting the ophthalmoscope beam off the retina back through the lens and iris. Using this technique, vacuoles appear as dark, almost opaque patches. […]

Structure (SMILES): O=C1NC(=O)C2(CCOc3ccc(F)cc32)N1 (racemic) [Sarges Racemic, dl-spiro-(6-fluorochroman-4,4'-imidazolidine)-2',5'-dione, reference compound]
- Percent of Rat Eyes With at Least Vacuoles Formed (0.126 mg/kg p.o., Day 0): 0%
- Percent of Rat Eyes With at Least Vacuoles Formed (0.126 mg/kg p.o., Day 1): 0%
- Percent of Rat Eyes With at Least Vacuoles Formed (0.126 mg/kg p.o., Day 2): 0%
- Percent of Rat Eyes With at Least Vacuoles Formed (0.126 mg/kg p.o., Day 3): 0%
- Percent of Rat Eyes With at Least Vacuoles Formed (0.126 mg/kg p.o., Day 4): 0%
- Percent of Rat Eyes With at Least Vacuoles Formed (0.126 mg/kg p.o., Day 5): 0%
- Percent of Rat Eyes With at Least Vacuoles Formed (0.126 mg/kg p.o., Day 6): 33%
- Percent of Rat Eyes With at Least Vacuoles Formed (0.126 mg/kg p.o., Day 7): 33%
- Percent of Rat Eyes With at Least Vacuoles Formed (0.126 mg/kg p.o., Day 8): 50%
- Percent of Rat Eyes With at Least Vacuoles Formed (0.126 mg/kg p.o., Day 9): 58%
- Percent of Rat Eyes With at Least Vacuoles Formed (0.126 mg/kg p.o., Day 10): 83%
- Percent of Rat Eyes With at Least Vacuoles Formed (0.126 mg/kg p.o., Day 12): 83%
- Percent of Rat Eyes With at Least Vacuoles Formed (0.126 mg/kg p.o., Day 14): 100%
- Percent of Rat Eyes With at Least Vacuoles Formed (0.4 mg/kg p.o., Day 0): 0%
- Percent of Rat Eyes With at Least Vacuoles Formed (0.4 mg/kg p.o., Day 1): 0%
- Percent of Rat Eyes With at Least Vacuoles Formed (0.4 mg/kg p.o., Day 2): 0%
- Percent of Rat Eyes With at Least Vacuoles Formed (0.4 mg/kg p.o., Day 3): 0%
- Percent of Rat Eyes With at Least Vacuoles Formed (0.4 mg/kg p.o., Day 4): 0%
- Percent of Rat Eyes With at Least Vacuoles Formed (0.4 mg/kg p.o., Day 5): 0%
- Percent of Rat Eyes With at Least Vacuoles Formed (0.4 mg/kg p.o., Day 6): 33%
- Percent of Rat Eyes With at Least Vacuoles Formed (0.4 mg/kg p.o., Day 7): 33%
- Percent of Rat Eyes With at Least Vacuoles Formed (0.4 mg/kg p.o., Day 8): 50%
- Percent of Rat Eyes With at Least Vacuoles Formed (0.4 mg/kg p.o., Day 9): 58%
- Percent of Rat Eyes With at Least Vacuoles Formed (0.4 mg/kg p.o., Day 10): 83%
- Percent of Rat Eyes With at Least Vacuoles Formed (0.4 mg/kg p.o., Day 12): 83%
- Percent of Rat Eyes With at Least Vacuoles Formed (0.4 mg/kg p.o., Day 14): 100%
- Percent of Rat Eyes With at Least Vacuoles Formed (1.26 mg/kg p.o., Day 0): 0%
- Percent of Rat Eyes With at Least Vacuoles Formed (1.26 mg/kg p.o., Day 1): 0%
- Percent of Rat Eyes With at Least Vacuoles Formed (1.26 mg/kg p.o., Day 2): 0%
- Percent of Rat Eyes With at Least Vacuoles Formed (1.26 mg/kg p.o., Day 3): 0%
- Percent of Rat Eyes With at Least Vacuoles Formed (1.26 mg/kg p.o., Day 4): 0%
- Percent of Rat Eyes With at Least Vacuoles Formed (1.26 mg/kg p.o., Day 5): 0%
- Percent of Rat Eyes With at Least Vacuoles Formed (1.26 mg/kg p.o., Day 6): 0%
- Percent of Rat Eyes With at Least Vacuoles Formed (1.26 mg/kg p.o., Day 7): 0%
- Percent of Rat Eyes With at Least Vacuoles Formed (1.26 mg/kg p.o., Day 8): 8%
- Percent of Rat Eyes With at Least Vacuoles Formed (1.26 mg/kg p.o., Day 9): 17%
- Percent of Rat Eyes With at Least Vacuoles Formed (1.26 mg/kg p.o., Day 10): 83%
- Percent of Rat Eyes With at Least Vacuoles Formed (1.26 mg/kg p.o., Day 12): 100%
- Percent of Rat Eyes With at Least Vacuoles Formed (1.26 mg/kg p.o., Day 14): 100%
- Percent of Rat Eyes With at Least Vacuoles Formed (4.0 mg/kg p.o., Day 0): 0%
- Percent of Rat Eyes With at Least Vacuoles Formed (4.0 mg/kg p.o., Day 1): 0%
- Percent of Rat Eyes With at Least Vacuoles Formed (4.0 mg/kg p.o., Day 2): 0%
- Percent of Rat Eyes With at Least Vacuoles Formed (4.0 mg/kg p.o., Day 3): 0%
- Percent of Rat Eyes With at Least Vacuoles Formed (4.0 mg/kg p.o., Day 4): 0%
- Percent of Rat Eyes With at Least Vacuoles Formed (4.0 mg/kg p.o., Day 5): 0%
- Percent of Rat Eyes With at Least Vacuoles Formed (4.0 mg/kg p.o., Day 6): 0%
- Percent of Rat Eyes With at Least Vacuoles Formed (4.0 mg/kg p.o., Day 7): 0%
- Percent of Rat Eyes With at Least Vacuoles Formed (4.0 mg/kg p.o., Day 8): 0%
- Percent of Rat Eyes With at Least Vacuoles Formed (4.0 mg/kg p.o., Day 9): 0%
- Percent of Rat Eyes With at Least Vacuoles Formed (4.0 mg/kg p.o., Day 10): 0%
- Percent of Rat Eyes With at Least Vacuoles Formed (4.0 mg/kg p.o., Day 12): 17% and 16.7%
- Percent of Rat Eyes With at Least Vacuoles Formed (4.0 mg/kg p.o., Day 14): 50%
- Percent of Rat Eyes With at Least Vacuoles Formed (12.6 mg/kg p.o., Day 0): 0%
- Percent of Rat Eyes With at Least Vacuoles Formed (12.6 mg/kg p.o., Day 1): 0%
- Percent of Rat Eyes With at Least Vacuoles Formed (12.6 mg/kg p.o., Day 2): 0%
- Percent of Rat Eyes With at Least Vacuoles Formed (12.6 mg/kg p.o., Day 3): 0%
- Percent of Rat Eyes With at Least Vacuoles Formed (12.6 mg/kg p.o., Day 4): 0%
- Percent of Rat Eyes With at Least Vacuoles Formed (12.6 mg/kg p.o., Day 5): 0%
- Percent of Rat Eyes With at Least Vacuoles Formed (12.6 mg/kg p.o., Day 6): 0%
- Percent of Rat Eyes With at Least Vacuoles Formed (12.6 mg/kg p.o., Day 7): 0%
- Percent of Rat Eyes With at Least Vacuoles Formed (12.6 mg/kg p.o., Day 8): 0%
- Percent of Rat Eyes With at Least Vacuoles Formed (12.6 mg/kg p.o., Day 9): 0%
- Percent of Rat Eyes With at Least Vacuoles Formed (12.6 mg/kg p.o., Day 10): 0%
- Percent of Rat Eyes With at Least Vacuoles Formed (12.6 mg/kg p.o., Day 12): 0%
- Percent of Rat Eyes With at Least Vacuoles Formed (12.6 mg/kg p.o., Day 14): 8% and 0.3%
- Percent of Rat Eyes With at Least Vacuoles Formed (40 mg/kg p.o., Day 0): 0%
- Percent of Rat Eyes With at Least Vacuoles Formed (40 mg/kg p.o., Day 1): 0%
- Percent of Rat Eyes With at Least Vacuoles Formed (40 mg/kg p.o., Day 2): 0%
- Percent of Rat Eyes With at Least Vacuoles Formed (40 mg/kg p.o., Day 3): 0%
- Percent of Rat Eyes With at Least Vacuoles Formed (40 mg/kg p.o., Day 4): 0%
- Percent of Rat Eyes With at Least Vacuoles Formed (40 mg/kg p.o., Day 5): 0%
- Percent of Rat Eyes With at Least Vacuoles Formed (40 mg/kg p.o., Day 6): 0%
- Percent of Rat Eyes With at Least Vacuoles Formed (40 mg/kg p.o., Day 7): 0%
- Percent of Rat Eyes With at Least Vacuoles Formed (40 mg/kg p.o., Day 8): 0%
- Percent of Rat Eyes With at Least Vacuoles Formed (40 mg/kg p.o., Day 9): 0%
- Percent of Rat Eyes With at Least Vacuoles Formed (40 mg/kg p.o., Day 10): 0%
- Percent of Rat Eyes With at Least Vacuoles Formed (40 mg/kg p.o., Day 12): 0%
- Percent of Rat Eyes With at Least Vacuoles Formed (40 mg/kg p.o., Day 14): 0%
